According to ChEMBL document CHEMBL3822358 (J Med Chem, 2016):

Target: Insulin-like growth factor 1 receptor (Homo sapiens, UniProt P08069)
Experiment: not given
Conditions: not given

Insulin-like growth factor 1 receptor, sequence (P08069 31-736 limits assumed): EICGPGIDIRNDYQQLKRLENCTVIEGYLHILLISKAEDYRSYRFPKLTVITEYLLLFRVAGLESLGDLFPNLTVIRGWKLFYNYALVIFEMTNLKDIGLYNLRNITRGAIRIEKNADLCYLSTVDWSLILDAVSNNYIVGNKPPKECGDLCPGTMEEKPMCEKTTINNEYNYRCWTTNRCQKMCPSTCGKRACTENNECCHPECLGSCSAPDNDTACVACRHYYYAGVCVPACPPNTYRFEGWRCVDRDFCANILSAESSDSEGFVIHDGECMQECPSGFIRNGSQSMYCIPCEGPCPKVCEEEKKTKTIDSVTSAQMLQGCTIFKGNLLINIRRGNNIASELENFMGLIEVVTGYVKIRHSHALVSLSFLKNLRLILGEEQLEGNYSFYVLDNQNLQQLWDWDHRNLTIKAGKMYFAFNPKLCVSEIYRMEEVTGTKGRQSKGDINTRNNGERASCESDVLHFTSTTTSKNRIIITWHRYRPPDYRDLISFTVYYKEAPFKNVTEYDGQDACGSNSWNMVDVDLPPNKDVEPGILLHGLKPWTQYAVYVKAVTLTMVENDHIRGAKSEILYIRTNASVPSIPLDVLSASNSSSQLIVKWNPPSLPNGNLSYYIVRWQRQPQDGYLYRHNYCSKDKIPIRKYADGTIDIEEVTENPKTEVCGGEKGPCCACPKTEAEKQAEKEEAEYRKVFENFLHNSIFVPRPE
Insulin-like growth factor 1 receptor, sequence (P08069 741-1367 limits assumed): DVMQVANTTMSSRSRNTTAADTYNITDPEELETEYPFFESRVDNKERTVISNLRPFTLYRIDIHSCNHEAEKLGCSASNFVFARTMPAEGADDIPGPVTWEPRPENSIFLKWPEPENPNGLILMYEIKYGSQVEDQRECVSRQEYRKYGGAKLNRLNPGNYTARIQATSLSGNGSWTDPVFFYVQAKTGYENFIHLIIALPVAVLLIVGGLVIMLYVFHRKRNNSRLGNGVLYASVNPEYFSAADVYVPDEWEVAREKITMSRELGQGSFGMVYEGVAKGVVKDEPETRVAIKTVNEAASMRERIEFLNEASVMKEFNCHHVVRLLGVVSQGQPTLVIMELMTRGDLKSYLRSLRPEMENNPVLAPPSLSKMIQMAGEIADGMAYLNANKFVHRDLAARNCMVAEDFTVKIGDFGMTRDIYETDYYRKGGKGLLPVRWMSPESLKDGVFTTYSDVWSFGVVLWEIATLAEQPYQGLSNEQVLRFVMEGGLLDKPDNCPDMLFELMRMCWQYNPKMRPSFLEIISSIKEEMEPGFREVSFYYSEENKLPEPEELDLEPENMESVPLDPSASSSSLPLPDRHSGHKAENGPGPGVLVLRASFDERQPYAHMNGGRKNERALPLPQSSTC

SMILES	IC50
COc1cc(N2CCC(N3CCN(C)CC3)CC2)ccc1Nc1ncc(Cl)c(Nc2ccccc2OC)n1	8.7 nM
CCP(=O)(CC)c1ccccc1Nc1nc(Nc2ccc(N3CCC(N4CCN(C)CC4)CC3)cc2OC)ncc1Cl	45.1 nM
CCOc1cc(N2CCC(N3CCN(C)CC3)CC2)ccc1Nc1ncc(Cl)c(Nc2ccccc2P(C)(C)=O)n1	103 nM
COc1cc(N2CCC(N3CCN(C)CC3)CC2)c(F)cc1Nc1ncc(Cl)c(Nc2ccccc2P(C)(C)=O)n1	59.5 nM
COc1cc(N2CCC(N(C)C)CC2)ccc1Nc1ncc(Cl)c(Nc2ccccc2P(C)(C)=O)n1	3.2 nM
COc1cc(N2CCC(N3CCN(C)CC3)CC2)ccc1Nc1ncc(Cl)c(Nc2ccccc2C(C)=O)n1	1.33 nM
COc1cc(N2CCC(N3CCN(C)CC3)CC2)ccc1Nc1ncc(Cl)c(Nc2ccccc2I)n1	6.2 nM
COc1cc(-c2cnn(C3CCNCC3)c2)ccc1Nc1ncc(Cl)c(Nc2ccccc2P(C)(C)=O)n1	98.1 nM
CC(C)Oc1cc(N2CCC(N3CCN(C)CC3)CC2)ccc1Nc1ncc(Cl)c(Nc2ccccc2P(C)(C)=O)n1	203 nM
COc1cc(N2CCC(N3CCCN(C)CC3)CC2)ccc1Nc1ncc(Cl)c(Nc2ccccc2P(C)(C)=O)n1	38.8 nM
COc1cc(N2CCC(N3CCN(C)CC3)CC2)ccc1Nc1ncc(Cl)c(Nc2ccccc2S(=O)(=O)N(C)C)n1	1.93 nM
COc1cc(P(C)(C)=O)ccc1Nc1ncc(Cl)c(Nc2ccccc2P(C)(C)=O)n1	139 nM
COc1cc(OCCCN2CCCC2)ccc1Nc1ncc(Cl)c(Nc2ccccc2P(C)(C)=O)n1	17.4 nM
COc1cc(OC2CCN(C)C2)ccc1Nc1ncc(Cl)c(Nc2ccccc2P(C)(C)=O)n1 (configuration not stated)	100 nM
COc1cc(P(C)(C)=O)ccc1Nc1ncc(Cl)c(Nc2ccccc2S(C)(=O)=O)n1	0.4 nM
COc1cc(P(C)(C)=O)ccc1Nc1ncc(Cl)c(Nc2ccccc2C(C)=O)n1	0.47 nM
COc1cc(N2CCC(N3CCN(C)CC3)CC2)ccc1Nc1ncc(Cl)c(Nc2ccccc2C(C)O)n1 (configuration not stated)	36.1 nM
COc1cc(P(C)(C)=O)ccc1Nc1ncc(Cl)c(Nc2ccccc2S(=O)(=O)C(C)C)n1	1.9 nM
COc1cc(N2CCC(N3CCN(C)CC3)CC2)ccc1Nc1ncc(OC)c(Nc2ccccc2P(C)(C)=O)n1	117 nM
COc1cc(N2CCC(N3CCN(C)CC3)CC2)ccc1Nc1ncc(F)c(Nc2ccccc2P(C)(C)=O)n1	143 nM

Target: Insulin receptor (Homo sapiens, UniProt P06213)
Sequence (P06213 28-758 limits assumed): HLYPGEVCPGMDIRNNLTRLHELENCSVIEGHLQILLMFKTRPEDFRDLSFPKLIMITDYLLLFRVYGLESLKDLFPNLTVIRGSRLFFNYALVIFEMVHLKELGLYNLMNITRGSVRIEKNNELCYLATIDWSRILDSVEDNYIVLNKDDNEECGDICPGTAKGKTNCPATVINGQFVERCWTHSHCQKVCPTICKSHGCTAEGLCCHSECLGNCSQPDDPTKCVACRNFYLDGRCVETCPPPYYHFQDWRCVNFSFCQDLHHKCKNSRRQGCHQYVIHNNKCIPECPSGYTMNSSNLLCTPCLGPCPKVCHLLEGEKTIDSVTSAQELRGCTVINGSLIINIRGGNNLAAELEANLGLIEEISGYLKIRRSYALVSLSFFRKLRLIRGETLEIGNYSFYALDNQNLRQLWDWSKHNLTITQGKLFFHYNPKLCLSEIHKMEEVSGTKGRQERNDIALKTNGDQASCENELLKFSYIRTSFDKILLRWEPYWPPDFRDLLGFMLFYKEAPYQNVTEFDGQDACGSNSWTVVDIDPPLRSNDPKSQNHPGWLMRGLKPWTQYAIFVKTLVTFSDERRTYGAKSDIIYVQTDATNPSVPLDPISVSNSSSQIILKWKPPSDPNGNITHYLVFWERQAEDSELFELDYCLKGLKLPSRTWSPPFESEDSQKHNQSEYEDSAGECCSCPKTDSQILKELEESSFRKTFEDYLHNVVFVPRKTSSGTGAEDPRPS
Sequence (P06213 763-1382 limits assumed): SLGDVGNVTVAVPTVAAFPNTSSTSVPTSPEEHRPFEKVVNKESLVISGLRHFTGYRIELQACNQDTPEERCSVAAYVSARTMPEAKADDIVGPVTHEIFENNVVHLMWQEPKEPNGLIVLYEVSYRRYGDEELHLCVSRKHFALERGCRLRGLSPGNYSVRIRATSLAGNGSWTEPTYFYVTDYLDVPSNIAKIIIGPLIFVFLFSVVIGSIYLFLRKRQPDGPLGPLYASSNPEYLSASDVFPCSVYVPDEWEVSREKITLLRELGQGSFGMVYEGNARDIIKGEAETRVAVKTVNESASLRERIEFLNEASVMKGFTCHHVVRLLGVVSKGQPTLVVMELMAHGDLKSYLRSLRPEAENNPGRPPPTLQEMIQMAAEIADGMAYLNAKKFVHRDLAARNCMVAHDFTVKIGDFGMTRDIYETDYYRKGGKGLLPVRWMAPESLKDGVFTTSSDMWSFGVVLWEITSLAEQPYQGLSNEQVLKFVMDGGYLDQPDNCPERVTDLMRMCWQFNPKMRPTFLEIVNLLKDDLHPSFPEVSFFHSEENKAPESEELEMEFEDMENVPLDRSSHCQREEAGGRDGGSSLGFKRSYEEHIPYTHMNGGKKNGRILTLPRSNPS
Experiment: not given
Conditions: not given

SMILES	IC50
COc1cc(N2CCC(N3CCN(C)CC3)CC2)ccc1Nc1ncc(Cl)c(Nc2ccccc2OC)n1	26 nM
CCP(=O)(CC)c1ccccc1Nc1nc(Nc2ccc(N3CCC(N4CCN(C)CC4)CC3)cc2OC)ncc1Cl	314 nM
CCOc1cc(N2CCC(N3CCN(C)CC3)CC2)ccc1Nc1ncc(Cl)c(Nc2ccccc2P(C)(C)=O)n1	253 nM
COc1cc(N2CCC(N3CCN(C)CC3)CC2)c(F)cc1Nc1ncc(Cl)c(Nc2ccccc2P(C)(C)=O)n1	1180 nM
COc1cc(N2CCC(N(C)C)CC2)ccc1Nc1ncc(Cl)c(Nc2ccccc2P(C)(C)=O)n1	100 nM
COc1cc(N2CCC(N3CCN(C)CC3)CC2)ccc1Nc1ncc(Cl)c(Nc2ccccc2C(C)=O)n1	2.16 nM
COc1cc(N2CCC(N3CCN(C)CC3)CC2)ccc1Nc1ncc(Cl)c(Nc2ccccc2I)n1	13.7 nM
COc1cc(-c2cnn(C3CCNCC3)c2)ccc1Nc1ncc(Cl)c(Nc2ccccc2P(C)(C)=O)n1	702 nM
CC(C)Oc1cc(N2CCC(N3CCN(C)CC3)CC2)ccc1Nc1ncc(Cl)c(Nc2ccccc2P(C)(C)=O)n1	700 nM
COc1cc(N2CCC(N3CCCN(C)CC3)CC2)ccc1Nc1ncc(Cl)c(Nc2ccccc2P(C)(C)=O)n1	162 nM
COc1cc(N2CCC(N3CCN(C)CC3)CC2)ccc1Nc1ncc(Cl)c(Nc2ccccc2S(=O)(=O)N(C)C)n1	8.44 nM
COc1cc(P(C)(C)=O)ccc1Nc1ncc(Cl)c(Nc2ccccc2P(C)(C)=O)n1	726 nM
COc1cc(OCCCN2CCCC2)ccc1Nc1ncc(Cl)c(Nc2ccccc2P(C)(C)=O)n1	284 nM
COc1cc(OC2CCN(C)C2)ccc1Nc1ncc(Cl)c(Nc2ccccc2P(C)(C)=O)n1 (configuration not stated)	397 nM
COc1cc(P(C)(C)=O)ccc1Nc1ncc(Cl)c(Nc2ccccc2S(C)(=O)=O)n1	4.7 nM
COc1cc(P(C)(C)=O)ccc1Nc1ncc(Cl)c(Nc2ccccc2C(C)=O)n1	0.88 nM
COc1cc(N2CCC(N3CCN(C)CC3)CC2)ccc1Nc1ncc(Cl)c(Nc2ccccc2C(C)O)n1 (configuration not stated)	43.2 nM
COc1cc(P(C)(C)=O)ccc1Nc1ncc(Cl)c(Nc2ccccc2S(=O)(=O)C(C)C)n1	9.9 nM
COc1cc(N2CCC(N3CCN(C)CC3)CC2)ccc1Nc1ncc(OC)c(Nc2ccccc2P(C)(C)=O)n1	1680 nM
COc1cc(N2CCC(N3CCN(C)CC3)CC2)ccc1Nc1ncc(F)c(Nc2ccccc2P(C)(C)=O)n1	1680 nM

Target: ALK tyrosine kinase receptor (Homo sapiens, UniProt Q9UM73)
Sequence (Q9UM73 whole entry): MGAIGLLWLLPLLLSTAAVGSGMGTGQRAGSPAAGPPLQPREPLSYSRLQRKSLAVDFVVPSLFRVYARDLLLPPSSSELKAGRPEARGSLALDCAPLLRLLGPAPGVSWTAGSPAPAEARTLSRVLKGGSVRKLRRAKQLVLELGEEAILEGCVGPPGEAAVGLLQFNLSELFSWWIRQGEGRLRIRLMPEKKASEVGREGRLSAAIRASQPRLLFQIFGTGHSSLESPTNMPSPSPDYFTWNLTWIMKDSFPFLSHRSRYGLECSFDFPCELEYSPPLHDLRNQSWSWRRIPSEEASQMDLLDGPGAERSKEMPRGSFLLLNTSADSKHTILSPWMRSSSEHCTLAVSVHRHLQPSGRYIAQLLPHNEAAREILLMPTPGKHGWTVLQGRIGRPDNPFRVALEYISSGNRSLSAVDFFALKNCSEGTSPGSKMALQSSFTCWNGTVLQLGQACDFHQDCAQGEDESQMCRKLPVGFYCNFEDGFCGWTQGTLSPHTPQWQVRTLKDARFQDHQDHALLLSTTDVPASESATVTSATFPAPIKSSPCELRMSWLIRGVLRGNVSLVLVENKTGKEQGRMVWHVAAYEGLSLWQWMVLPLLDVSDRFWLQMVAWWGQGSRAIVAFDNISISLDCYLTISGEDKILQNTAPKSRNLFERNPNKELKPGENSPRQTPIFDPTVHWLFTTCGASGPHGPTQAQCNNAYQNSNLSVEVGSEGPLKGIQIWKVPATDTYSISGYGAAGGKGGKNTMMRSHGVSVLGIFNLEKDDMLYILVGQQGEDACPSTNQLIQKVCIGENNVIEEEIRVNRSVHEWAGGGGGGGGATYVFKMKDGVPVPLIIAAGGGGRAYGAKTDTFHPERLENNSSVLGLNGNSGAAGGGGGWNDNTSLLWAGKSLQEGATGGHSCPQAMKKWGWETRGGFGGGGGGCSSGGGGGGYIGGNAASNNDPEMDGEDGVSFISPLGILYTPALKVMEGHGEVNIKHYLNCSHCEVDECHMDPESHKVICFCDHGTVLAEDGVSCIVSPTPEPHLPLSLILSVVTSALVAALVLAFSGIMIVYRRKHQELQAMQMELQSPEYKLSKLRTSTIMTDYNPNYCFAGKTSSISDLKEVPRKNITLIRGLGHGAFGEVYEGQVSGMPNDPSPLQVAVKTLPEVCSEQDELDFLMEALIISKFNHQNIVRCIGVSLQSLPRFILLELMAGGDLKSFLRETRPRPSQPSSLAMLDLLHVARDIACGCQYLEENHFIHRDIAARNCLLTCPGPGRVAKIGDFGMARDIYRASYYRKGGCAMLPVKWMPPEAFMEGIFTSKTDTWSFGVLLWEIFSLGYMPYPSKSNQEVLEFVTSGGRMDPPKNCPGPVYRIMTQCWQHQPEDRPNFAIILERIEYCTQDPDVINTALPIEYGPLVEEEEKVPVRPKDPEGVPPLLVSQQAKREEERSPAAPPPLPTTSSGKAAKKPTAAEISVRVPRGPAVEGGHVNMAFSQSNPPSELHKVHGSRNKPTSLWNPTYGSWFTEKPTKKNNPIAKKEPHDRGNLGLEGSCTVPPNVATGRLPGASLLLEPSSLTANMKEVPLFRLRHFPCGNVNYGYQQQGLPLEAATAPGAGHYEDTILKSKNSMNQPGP
Experiment: not given
Conditions: not given

SMILES	IC50
COc1cc(N2CCC(N3CCN(C)CC3)CC2)ccc1Nc1ncc(Cl)c(Nc2ccccc2OC)n1	1.88 nM
CCP(=O)(CC)c1ccccc1Nc1nc(Nc2ccc(N3CCC(N4CCN(C)CC4)CC3)cc2OC)ncc1Cl	0.12 nM
CCOc1cc(N2CCC(N3CCN(C)CC3)CC2)ccc1Nc1ncc(Cl)c(Nc2ccccc2P(C)(C)=O)n1	0.75 nM
COc1cc(N2CCC(N3CCN(C)CC3)CC2)c(F)cc1Nc1ncc(Cl)c(Nc2ccccc2P(C)(C)=O)n1	1.03 nM
COc1cc(N2CCC(N(C)C)CC2)ccc1Nc1ncc(Cl)c(Nc2ccccc2P(C)(C)=O)n1	0.07 nM
COc1cc(N2CCC(N3CCN(C)CC3)CC2)ccc1Nc1ncc(Cl)c(Nc2ccccc2C(C)=O)n1	1.59 nM
COc1cc(N2CCC(N3CCN(C)CC3)CC2)ccc1Nc1ncc(Cl)c(Nc2ccccc2I)n1	1.36 nM
COc1cc(-c2cnn(C3CCNCC3)c2)ccc1Nc1ncc(Cl)c(Nc2ccccc2P(C)(C)=O)n1	0.76 nM
CC(C)Oc1cc(N2CCC(N3CCN(C)CC3)CC2)ccc1Nc1ncc(Cl)c(Nc2ccccc2P(C)(C)=O)n1	0.68 nM
COc1cc(N2CCC(N3CCCN(C)CC3)CC2)ccc1Nc1ncc(Cl)c(Nc2ccccc2P(C)(C)=O)n1	0.49 nM
COc1cc(N2CCC(N3CCN(C)CC3)CC2)ccc1Nc1ncc(Cl)c(Nc2ccccc2S(=O)(=O)N(C)C)n1	0.75 nM
COc1cc(P(C)(C)=O)ccc1Nc1ncc(Cl)c(Nc2ccccc2P(C)(C)=O)n1	1.06 nM
COc1cc(OCCCN2CCCC2)ccc1Nc1ncc(Cl)c(Nc2ccccc2P(C)(C)=O)n1	0.22 nM
COc1cc(OC2CCN(C)C2)ccc1Nc1ncc(Cl)c(Nc2ccccc2P(C)(C)=O)n1 (configuration not stated)	0.33 nM
COc1cc(P(C)(C)=O)ccc1Nc1ncc(Cl)c(Nc2ccccc2S(C)(=O)=O)n1	0.33 nM
COc1cc(P(C)(C)=O)ccc1Nc1ncc(Cl)c(Nc2ccccc2C(C)=O)n1	0.79 nM
COc1cc(N2CCC(N3CCN(C)CC3)CC2)ccc1Nc1ncc(Cl)c(Nc2ccccc2C(C)O)n1 (configuration not stated)	0.99 nM
COc1cc(P(C)(C)=O)ccc1Nc1ncc(Cl)c(Nc2ccccc2S(=O)(=O)C(C)C)n1	0.31 nM
COc1cc(N2CCC(N3CCN(C)CC3)CC2)ccc1Nc1ncc(OC)c(Nc2ccccc2P(C)(C)=O)n1	1.19 nM
COc1cc(N2CCC(N3CCN(C)CC3)CC2)ccc1Nc1ncc(F)c(Nc2ccccc2P(C)(C)=O)n1	0.39 nM

Test system: not listed separately
Experiment: cells
Conditions: Homo sapiens, KARPAS-299, 72 h
Description: Antiproliferative activity against human ALK-positive KARPAS299 cells assessed as reduction in cell viability measured after 72 hrs by CellTiter 96 aqueous one solution cell proliferation assay

SMILES	IC50
COc1cc(N2CCC(N3CCN(C)CC3)CC2)ccc1Nc1ncc(Cl)c(Nc2ccccc2OC)n1	851 nM
CCP(=O)(CC)c1ccccc1Nc1nc(Nc2ccc(N3CCC(N4CCN(C)CC4)CC3)cc2OC)ncc1Cl	169 nM
CCOc1cc(N2CCC(N3CCN(C)CC3)CC2)ccc1Nc1ncc(Cl)c(Nc2ccccc2P(C)(C)=O)n1	58.9 nM
COc1cc(N2CCC(N3CCN(C)CC3)CC2)c(F)cc1Nc1ncc(Cl)c(Nc2ccccc2P(C)(C)=O)n1	162 nM
COc1cc(N2CCC(N(C)C)CC2)ccc1Nc1ncc(Cl)c(Nc2ccccc2P(C)(C)=O)n1	41.5 nM
COc1cc(N2CCC(N3CCN(C)CC3)CC2)ccc1Nc1ncc(Cl)c(Nc2ccccc2I)n1	705 nM
COc1cc(-c2cnn(C3CCNCC3)c2)ccc1Nc1ncc(Cl)c(Nc2ccccc2P(C)(C)=O)n1	322 nM
CC(C)Oc1cc(N2CCC(N3CCN(C)CC3)CC2)ccc1Nc1ncc(Cl)c(Nc2ccccc2P(C)(C)=O)n1	54.6 nM
COc1cc(N2CCC(N3CCCN(C)CC3)CC2)ccc1Nc1ncc(Cl)c(Nc2ccccc2P(C)(C)=O)n1	105 nM
COc1cc(P(C)(C)=O)ccc1Nc1ncc(Cl)c(Nc2ccccc2P(C)(C)=O)n1	738 nM
COc1cc(OCCCN2CCCC2)ccc1Nc1ncc(Cl)c(Nc2ccccc2P(C)(C)=O)n1	113 nM
COc1cc(OC2CCN(C)C2)ccc1Nc1ncc(Cl)c(Nc2ccccc2P(C)(C)=O)n1 (configuration not stated)	65.1 nM
COc1cc(P(C)(C)=O)ccc1Nc1ncc(Cl)c(Nc2ccccc2S(C)(=O)=O)n1	405 nM
COc1cc(P(C)(C)=O)ccc1Nc1ncc(Cl)c(Nc2ccccc2C(C)=O)n1	251 nM
COc1cc(P(C)(C)=O)ccc1Nc1ncc(Cl)c(Nc2ccccc2S(=O)(=O)C(C)C)n1	20 nM
COc1cc(N2CCC(N3CCN(C)CC3)CC2)ccc1Nc1ncc(OC)c(Nc2ccccc2P(C)(C)=O)n1	429 nM
COc1cc(N2CCC(N3CCN(C)CC3)CC2)ccc1Nc1ncc(F)c(Nc2ccccc2P(C)(C)=O)n1	147 nM

Test system: not listed separately
Experiment: cells
Conditions: Homo sapiens, U-937, 72 h
Description: Antiproliferative activity against human ALK-negative U937 cells assessed as reduction in cell viability measured after 72 hrs by CellTiter 96 aqueous one solution cell proliferation assay

SMILES	IC50
CCP(=O)(CC)c1ccccc1Nc1nc(Nc2ccc(N3CCC(N4CCN(C)CC4)CC3)cc2OC)ncc1Cl	3460 nM
CCOc1cc(N2CCC(N3CCN(C)CC3)CC2)ccc1Nc1ncc(Cl)c(Nc2ccccc2P(C)(C)=O)n1	22400 nM
COc1cc(N2CCC(N3CCN(C)CC3)CC2)c(F)cc1Nc1ncc(Cl)c(Nc2ccccc2P(C)(C)=O)n1	1230 nM
COc1cc(N2CCC(N(C)C)CC2)ccc1Nc1ncc(Cl)c(Nc2ccccc2P(C)(C)=O)n1	1720 nM
COc1cc(-c2cnn(C3CCNCC3)c2)ccc1Nc1ncc(Cl)c(Nc2ccccc2P(C)(C)=O)n1	6230 nM
CC(C)Oc1cc(N2CCC(N3CCN(C)CC3)CC2)ccc1Nc1ncc(Cl)c(Nc2ccccc2P(C)(C)=O)n1	21500 nM
COc1cc(N2CCC(N3CCCN(C)CC3)CC2)ccc1Nc1ncc(Cl)c(Nc2ccccc2P(C)(C)=O)n1	3390 nM
COc1cc(P(C)(C)=O)ccc1Nc1ncc(Cl)c(Nc2ccccc2P(C)(C)=O)n1	13200 nM
COc1cc(OCCCN2CCCC2)ccc1Nc1ncc(Cl)c(Nc2ccccc2P(C)(C)=O)n1	2310 nM
COc1cc(OC2CCN(C)C2)ccc1Nc1ncc(Cl)c(Nc2ccccc2P(C)(C)=O)n1 (configuration not stated)	6330 nM
COc1cc(P(C)(C)=O)ccc1Nc1ncc(Cl)c(Nc2ccccc2S(C)(=O)=O)n1	4810 nM
COc1cc(P(C)(C)=O)ccc1Nc1ncc(Cl)c(Nc2ccccc2C(C)=O)n1	1420 nM
COc1cc(P(C)(C)=O)ccc1Nc1ncc(Cl)c(Nc2ccccc2S(=O)(=O)C(C)C)n1	4840 nM
COc1cc(N2CCC(N3CCN(C)CC3)CC2)ccc1Nc1ncc(OC)c(Nc2ccccc2P(C)(C)=O)n1	13900 nM
COc1cc(N2CCC(N3CCN(C)CC3)CC2)ccc1Nc1ncc(F)c(Nc2ccccc2P(C)(C)=O)n1	24200 nM
